Data: ChEMBL document CHEMBL1142766, “4-Fluorosulfonylpiperidines: selective 5-HT2A ligands for the treatment of insomnia” (Bioorg Med Chem Lett, 2005)

Columns and labels:
[1] = target: T1, 5-hydroxytryptamine receptor 2C (Homo sapiens, UniProt P28335)
T1 sequence (P28335 whole entry): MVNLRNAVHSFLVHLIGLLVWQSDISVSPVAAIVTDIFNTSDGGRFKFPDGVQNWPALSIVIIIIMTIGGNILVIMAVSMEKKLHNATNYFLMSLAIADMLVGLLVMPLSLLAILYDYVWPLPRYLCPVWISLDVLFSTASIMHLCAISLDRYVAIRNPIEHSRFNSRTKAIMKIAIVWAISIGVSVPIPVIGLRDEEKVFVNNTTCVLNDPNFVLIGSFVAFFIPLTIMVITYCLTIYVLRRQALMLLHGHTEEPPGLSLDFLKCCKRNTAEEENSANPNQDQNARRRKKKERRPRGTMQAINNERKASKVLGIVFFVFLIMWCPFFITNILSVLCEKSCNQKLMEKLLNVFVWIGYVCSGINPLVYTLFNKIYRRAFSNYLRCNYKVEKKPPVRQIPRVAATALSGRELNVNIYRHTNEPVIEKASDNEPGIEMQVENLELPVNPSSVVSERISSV
Description: Binding affinity against human 5-hydroxytryptamine 2c receptor

[2] = target: Voltage-gated inwardly rectifying potassium channel KCNH2 (Homo sapiens, UniProt Q12809); assay: Binding affinity against human IKr channel
D(2) dopamine receptor = D(2) dopamine receptor (Homo sapiens, UniProt P14416); assay: Binding affinity against human Dopamine receptor D2
[3] = target: 5-hydroxytryptamine receptor 2A (Homo sapiens, UniProt P28223); assay: Binding affinity against human 5-hydroxytryptamine 2A receptor
[4] = Bioavailability in rat; assay type: ADME, organism-based; settings: in vivo
[5] = target: 5-hydroxytryptamine receptor 2A (Rattus norvegicus, UniProt P14842); assay: Binding affinity against rat 5-hydroxytryptamine 2A receptor
[6] = Plasma clearance after i.v. administration in rat; assay type: ADME, organism-based; settings: iv, read-out: Clp
[7] = pKa value of the compound; assay type: physicochemical
[8] = Half life period was determined; assay type: ADME; settings: rat
[9] = target: 5-hydroxytryptamine receptor 2A (Rattus norvegicus) (UniProt P14842); assay: In vivo occupancy at rat 5-HT2A receptor at 30 min after dosing at 10 mg/kg per orally; assay type: functional, organism-based
Chain of 5-hydroxytryptamine receptor 2A (Rattus norvegicus) (P14842 whole entry): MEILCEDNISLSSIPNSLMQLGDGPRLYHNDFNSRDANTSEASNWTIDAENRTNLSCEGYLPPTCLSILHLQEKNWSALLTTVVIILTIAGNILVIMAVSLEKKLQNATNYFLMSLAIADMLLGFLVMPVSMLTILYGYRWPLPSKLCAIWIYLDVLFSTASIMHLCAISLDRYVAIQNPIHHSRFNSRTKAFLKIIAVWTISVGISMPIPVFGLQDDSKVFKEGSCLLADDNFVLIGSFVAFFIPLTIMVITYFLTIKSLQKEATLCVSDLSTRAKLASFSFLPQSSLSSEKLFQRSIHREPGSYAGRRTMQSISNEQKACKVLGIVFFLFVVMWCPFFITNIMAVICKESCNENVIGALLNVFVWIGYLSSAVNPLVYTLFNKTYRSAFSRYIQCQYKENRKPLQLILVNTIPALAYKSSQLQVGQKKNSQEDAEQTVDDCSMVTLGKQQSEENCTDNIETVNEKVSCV

Chain of 5-hydroxytryptamine receptor 2A (Homo sapiens, UniProt P28223) (P28223 whole entry): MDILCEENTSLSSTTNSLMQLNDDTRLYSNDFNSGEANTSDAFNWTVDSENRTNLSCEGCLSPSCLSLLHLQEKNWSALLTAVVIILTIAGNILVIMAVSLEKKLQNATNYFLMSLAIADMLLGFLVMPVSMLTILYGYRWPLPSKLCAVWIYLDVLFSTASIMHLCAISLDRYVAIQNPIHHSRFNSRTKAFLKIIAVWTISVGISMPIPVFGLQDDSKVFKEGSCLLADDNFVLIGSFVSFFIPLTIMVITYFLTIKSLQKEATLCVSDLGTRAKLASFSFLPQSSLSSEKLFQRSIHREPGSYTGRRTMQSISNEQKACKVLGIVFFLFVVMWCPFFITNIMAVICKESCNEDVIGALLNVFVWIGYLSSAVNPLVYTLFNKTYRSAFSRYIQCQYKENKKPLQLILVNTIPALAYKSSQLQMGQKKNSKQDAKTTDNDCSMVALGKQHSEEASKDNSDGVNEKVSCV
Chain of Voltage-gated inwardly rectifying potassium channel KCNH2 (Q12809 whole entry): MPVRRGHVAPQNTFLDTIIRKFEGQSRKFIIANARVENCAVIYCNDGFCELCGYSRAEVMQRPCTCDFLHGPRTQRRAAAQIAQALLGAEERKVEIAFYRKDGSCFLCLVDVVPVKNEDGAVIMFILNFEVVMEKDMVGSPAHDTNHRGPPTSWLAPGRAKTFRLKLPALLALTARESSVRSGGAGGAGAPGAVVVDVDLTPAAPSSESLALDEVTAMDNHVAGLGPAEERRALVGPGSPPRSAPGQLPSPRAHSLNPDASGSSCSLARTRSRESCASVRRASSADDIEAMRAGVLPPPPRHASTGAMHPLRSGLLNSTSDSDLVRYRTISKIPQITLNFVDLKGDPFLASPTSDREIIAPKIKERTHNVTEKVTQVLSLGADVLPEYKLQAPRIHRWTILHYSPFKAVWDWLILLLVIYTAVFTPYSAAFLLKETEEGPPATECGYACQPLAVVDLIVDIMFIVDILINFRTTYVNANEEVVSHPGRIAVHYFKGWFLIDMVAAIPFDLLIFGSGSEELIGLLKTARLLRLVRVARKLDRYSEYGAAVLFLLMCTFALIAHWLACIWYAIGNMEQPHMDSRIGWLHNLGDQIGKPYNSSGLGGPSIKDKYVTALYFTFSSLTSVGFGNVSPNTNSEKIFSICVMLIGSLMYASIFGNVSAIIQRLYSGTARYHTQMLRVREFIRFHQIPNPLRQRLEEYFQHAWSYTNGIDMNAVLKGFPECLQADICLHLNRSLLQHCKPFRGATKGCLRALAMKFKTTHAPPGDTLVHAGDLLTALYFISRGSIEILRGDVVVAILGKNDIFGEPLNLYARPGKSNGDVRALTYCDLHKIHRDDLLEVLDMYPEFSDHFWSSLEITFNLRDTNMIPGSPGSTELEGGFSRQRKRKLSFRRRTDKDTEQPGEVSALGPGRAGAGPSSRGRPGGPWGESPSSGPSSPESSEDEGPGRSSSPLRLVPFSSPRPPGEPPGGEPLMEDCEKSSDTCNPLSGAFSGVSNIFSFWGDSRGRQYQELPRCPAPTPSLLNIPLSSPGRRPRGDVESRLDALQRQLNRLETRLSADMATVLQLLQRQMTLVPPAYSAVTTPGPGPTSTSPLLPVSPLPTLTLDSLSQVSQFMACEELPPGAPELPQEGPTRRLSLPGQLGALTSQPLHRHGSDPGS
Chain of 5-hydroxytryptamine receptor 2A (Rattus norvegicus, UniProt P14842) (P14842 whole entry): as the sequence (P14842 whole entry) above
Chain of D(2) dopamine receptor (P14416 whole entry): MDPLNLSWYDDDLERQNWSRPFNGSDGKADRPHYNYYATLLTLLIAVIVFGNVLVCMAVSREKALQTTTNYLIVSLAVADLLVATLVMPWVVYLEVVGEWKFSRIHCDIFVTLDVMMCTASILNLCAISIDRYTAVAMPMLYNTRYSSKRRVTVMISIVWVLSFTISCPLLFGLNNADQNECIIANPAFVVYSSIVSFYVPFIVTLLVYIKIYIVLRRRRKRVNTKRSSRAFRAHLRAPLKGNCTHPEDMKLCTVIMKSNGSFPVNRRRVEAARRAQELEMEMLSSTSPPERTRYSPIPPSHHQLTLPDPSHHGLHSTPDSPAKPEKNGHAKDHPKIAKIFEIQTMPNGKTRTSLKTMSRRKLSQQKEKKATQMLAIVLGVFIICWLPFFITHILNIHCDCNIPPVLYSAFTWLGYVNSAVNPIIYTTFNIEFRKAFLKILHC

| Compound | Ki [1] | Ki [2] | Ki (D(2) dopamine receptor) | Ki [3] | bioavailability [4] | Ki [5] | clearance [6] | pKa [7] | half-life [8] | Activity [9] |
| --- | --- | --- | --- | --- | --- | --- | --- | --- | --- | --- |
| O=S(=O)(c1ccccc1F)C1(F)CCN(CCc2ccc(F)cc2F)CC1 | 14 nM | 398 nM | 266 nM | 0.32 nM |  |  |  |  |  |  |
| O=S(=O)(c1ccc(F)cc1)C1(F)CCN(CCc2ccc(F)cc2F)CC1 | 176 nM | 5560 nM | 313 nM | 0.39 nM | 51% | 0.63 nM | 69 mL/min | 6.3 | 3.8 h | 98% |
| O=S(=O)(c1ccc(N2CCC2)cc1)C1(F)CCN(CCc2ccc(F)cc2F)CC1 | 844 nM |  | > 2000 nM | 1 nM |  | 0.3 nM |  |  |  | 49 |
| O=S(=O)(c1cccc(F)c1)C1(F)CCN(CCc2ccc(F)cc2F)CC1 | 49 nM |  | 791 nM | 0.3 nM |  |  |  |  |  |  |
| N#Cc1ccc(S(=O)(=O)C2(F)CCN(CCc3ccc(F)cc3F)CC2)cc1 | 1490 nM | 2700 nM | 863 nM | 2.7 nM |  | 1.33 nM |  | 6.4 |  | 80 |
| O=S(=O)(c1ccc(Cl)cc1)C1(F)CCN(CCc2ccc(F)cc2F)CC1 |  |  | > 1000 nM | 0.64 nM |  |  |  |  |  |  |
| O=S(=O)(c1ccc(-n2cccn2)cc1)C1(F)CCN(CCc2ccc(F)cc2F)CC1 | > 4000 nM | > 9000 nM | > 2000 nM | 2 nM |  | 1.6 nM |  |  |  | 37 |
| O=S(=O)(c1ccccc1)C1CCN(CCc2ccc(F)cc2F)CC1 |  |  |  |  |  |  |  | 7.3 |  |  |
| O=S(=O)(c1ccccc1)C1(F)CCN(CCc2ccc(F)cc2F)CC1 | 49 nM | 2450 nM | > 1000 nM | 0.68 nM |  |  |  |  |  |  |
| O=S(=O)(c1ccc(F)cc1)C1CCN(CCc2ccc(F)cc2F)CC1 |  |  |  |  |  |  |  | 7.2 |  |  |
| O=C(CN1CCC(S(=O)(=O)c2ccccc2)CC1)c1ccc(F)cc1F | 130 nM | 6800 nM | > 1500 nM | 2.4 nM |  | 0.51 nM |  | 6.3 |  |  |
| O=S(=O)(c1ccc(-n2ccnn2)cc1)C1(F)CCN(CCc2ccc(F)cc2F)CC1 | > 4000 nM | > 9000 nM | > 2000 nM | 0.66 nM |  |  |  |  |  | 62 |
